Experimental data: US20240245633A1, “ROR Gamma Agonists as Enhancers of Protective Immunity” (University of Florida Research Foundation, Incorporated, priority 2015, published 2024)
Marks after values point to notes of the source that are not given here.

Experiments:
Gal4-RORγ = target: T1, Gal4-RORγ (Homo sapiens, UniProt P51449); parameters: RORγt activity after pre-treatment; fold induction of reporter gene expression; other: single concentration 30 μM; induction of luciferase expression at highest concentration of the concentration response curve; other: 30 μM, 2 μM urs; luciferase reporter gene expression; conditions: recently identified putative endogenous agonist; cited from earlier work
T1 sequence (P51449 269-508 limits assumed): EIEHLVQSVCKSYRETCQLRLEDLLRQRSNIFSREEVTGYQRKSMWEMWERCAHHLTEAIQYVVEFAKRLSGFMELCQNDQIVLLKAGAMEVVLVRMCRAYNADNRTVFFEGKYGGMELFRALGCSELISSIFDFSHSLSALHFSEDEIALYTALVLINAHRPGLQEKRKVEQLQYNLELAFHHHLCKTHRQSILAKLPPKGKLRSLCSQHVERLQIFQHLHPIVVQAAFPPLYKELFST

full length RORγt = target: T2, full length RORγt (Homo sapiens, UniProt P51449); assay: Full-length RORγt co-transfection with 5×RORE-Luc reporter in HEK293T cells; type: cell-based; conditions: 2 μM ursolic acid
T2 construct: full length RORγt was co-transfected along with a luciferase reporter; expressed in transfected cells; host or cells: HEK293T
T2 sequence (P51449 1-497 isoform P51449-2): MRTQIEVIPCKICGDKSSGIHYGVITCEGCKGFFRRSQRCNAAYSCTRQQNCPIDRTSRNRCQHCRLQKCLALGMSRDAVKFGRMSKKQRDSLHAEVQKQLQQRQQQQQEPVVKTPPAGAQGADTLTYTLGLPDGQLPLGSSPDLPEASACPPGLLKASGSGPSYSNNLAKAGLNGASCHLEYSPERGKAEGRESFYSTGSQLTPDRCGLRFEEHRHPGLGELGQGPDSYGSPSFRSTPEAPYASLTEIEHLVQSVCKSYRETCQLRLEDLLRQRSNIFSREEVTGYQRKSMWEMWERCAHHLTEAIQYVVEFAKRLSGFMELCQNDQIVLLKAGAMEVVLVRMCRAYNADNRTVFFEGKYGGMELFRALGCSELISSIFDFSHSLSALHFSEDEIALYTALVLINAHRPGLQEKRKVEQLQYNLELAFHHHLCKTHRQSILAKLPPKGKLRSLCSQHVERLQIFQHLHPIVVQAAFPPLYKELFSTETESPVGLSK
From the text: In order to determine if these compounds could modulate RORγt activity in the context of the full-length receptor, we used a co-transfection system in HEK293T cells in which full length RORγt was co-transfected along with a luciferase reporter under the control of either a basic promoter containing five copies of an ROR response element (5×RORE) or a minimal IL17 promoter.

RORγt LBD = target: T3, RORγt LBD (Homo sapiens, UniProt P51449); assay: Differential HDX-MS of RORγt LBD ± compounds; type: binding
T3 construct: 5 μL of a 10 μM RORγt LBD solution (Apo or in complex with 10-excess compound)
T3 sequence (P51449 269-508 limits assumed): T1 sequence (P51449 269-508 limits assumed)
From the text: While the mechanism of action of RORγt agonists on regulation of the immune checkpoint receptor PD-1 is unclear, a correlation between RORγt and PD-1 expression has been observed in PD-1 knockout mice Z Regardless, to gain insights into the structural mechanism for agonist activity we examined the impact of putative agonist ligands on the conformational dynamics of RORγt. To achieve this, we utilized differential hydrogen/deuterium exchange (HDX) mass spectrometry.
HDX-MS. Solution-phase amide HDX was performed with a fully automated system as described previously with minor modifications^30,31. For differential HDX experiments, 5 μL of a 10 μM RORγt LBD solution (Apo or in complex with 10-excess compound) was diluted to 25 μL with D20-containing HDX buffer, and incubated at 4° C. for; 10 s, 30s, 60s, 900s, and 3,600s, Following on-exchange, unwanted forward or back exchange is minimized and the protein is denatured by dilution to 50 μL with 0.1% TFA in 3M urea (held at 4° C., pH 2.5). Samples are then passed across an immobilized pepsin column (prepared in house) at 50 μL min−1 (0.1% TFA, 15° C.) and the resulting peptides are trapped onto a Ce trap cartridge (Thermo Fisher, Hypersil Gold). Peptides were then gradient eluted (4% CH3CN to 40% CH3CN, 0,3% formic acid over 5 minutes, 4° C.) across a 1 mm×50 mm Cia HPLC column (Hypersil Gold, Thermo Fisher) and electrosprayed directly into a high resolution orbitrap mass spectrometer (Exactive, Thermo Fisher). Percent deuterium exchange values for peptide isotopic envelopes at each time point were calculated and processed using HDX Workbench^32 and overlaid onto RORγt crystal structures using pyMOL (DeLano Scientific). HDX data is presented as an average of three individual replicates across […] time points (10s, 60s, 300s, 900s, and 3600s).

For `CC(C)=CCC[C@@H](C)[C@H]1CC[C@H]2[C@@H]3CC=C4C[C@@H](O)CC[C@]4(C)[C@H]3CC[C@]12C` [desmosterol], the “restoring RORγt activity in the presence of ursolic acid” value (Gal4-RORγ) is given as “capable of restoring RORγt activity in the presence of ursolic acid”, the “reporter gene expression, 5×RORE promoter” value (full length RORγt) is given as “minimal induction of the reporter gene” and the “Differential HDX kinetics, peptide TEIEHLVQSVC” value (RORγt LBD; 268-278, charge 2, H1) is given as −1(4)*. The “Differential HDX kinetics, peptide TEIEHLVQSVCXS” value (RORγt LBD; 268-280, charge 3, H1) was 0(5)*, the “Differential HDX kinetics, peptide TEIEHLVQSVCKSYRETCQ” value (RORγt LBD; 268-286, charge 2, H1) was −5(3) and the “Differential HDX kinetics, peptide LRLEDL” value (RORγt LBD; 287-292, charge 2, H2) was −5(4)*. The “Differential HDX kinetics, peptide RLEDLL” value (RORγt LBD; 288-293, charge 2, H2) was −6(3), the “Differential HDX kinetics, peptide RLEDLLRQRSNIFSRE” value (RORγt LBD; 288-303, charge 4, H2/H3) was −10(4) and the “Differential HDX kinetics, peptide WERCAHHLTEAIQ” value (RORγt LBD; 317-329, charge 2, H4) was −5(1)*. The “Differential HDX kinetics, peptide WERCAHHTEAIQY” value (RORγt LBD; 317-330, charge 3, H4) was −4(1)*, the “Differential HDX kinetics, peptide WEGAKRLSGF” value (RORγt LBD; 331-341, charge 2, H4/H5) was −1(1)* and the “Differential HDX kinetics, peptide AKRLSGF” value (RORγt LBD; 335-341, charge 2, H4/H5) was −1(2)*. The “Differential HDX kinetics, peptide CQNDQVL” value (RORγt LBD; 345-352, charge 1, H5/H6) was 0(1)*, the “Differential HDX kinetics, peptide VRMCRAYNAENRTVF” value (RORγt LBD; 363-377, charge 3, H6/B1) was −7(2) and the “Differential HDX kinetics, peptide CRAYCAONRTVF” value (RORγt LBD; 366-377, charge 2, B1) was −5(2). The “Differential HDX kinetics, peptide FEGKYGGMEL” value (RORγt LBD; 373-387, charge 2, B2/H7) was −6(3), the “Differential HDX kinetics, peptide FRALGCSE” value (RORγt LBD; 386-398, charge 2, H7/H8) was −4(3)* and the “Differential HDX kinetics, peptide LISSIFDFSHSLSAL” value (RORγt LBD; 395-410, charge 2, H8) was −4(2)*. The “Differential HDX kinetics, peptide ISSIFD” value (RORγt LBD; 397-402, charge 1, H8) was −4(2)*, the “Differential HDX kinetics, peptide ISSIFDFSHSL” value (RORγt LBD; 397-407, charge 2, H8) was −4(2)* and the “Differential HDX kinetics, peptide ISSIFDSHSLSAL” value (RORγt LBD; 397-410, charge 2, H8) was −4(2)*. For the same compound, the “Differential HDX kinetics, peptide DFSHSLSAL” value (RORγt LBD; 402-410, charge 1, H8) was −5(3), the “Differential HDX kinetics, peptide FSHSLSAL” value (RORγt LBD; 403-410, charge 2, H8) was −4(3)* and the “Differential HDX kinetics, peptide HFSEDEIAL” value (RORγt LBD; 411-419, charge 2, H9) was −1(1)*. The “Differential HDX kinetics, peptide LAFHHHLCKTHRQSL” value (RORγt LBD; 448-463, charge 4, H10) was −3(2)*, the “Differential HDX kinetics, peptide AKLPFXGKLRSLCSQ” value (RORγt LBD; 464-478, charge 3, H11) was −12(4) and the “Differential HDX kinetics, peptide HVERLQFQHLHPIVVQ” value (RORγt LBD; 479-495, charge 2, H11) was −12(4). For the same compound, the “Differential HDX kinetics, peptide QFQHLHPIVVQ” value (RORγt LBD; 484-495, charge 2, H11) was −6(4)*, the “Differential HDX kinetics, peptide AAFPPLYXEL” value (RORγt LBD; 495-505, charge 2, H12) was −2(4)* and the “Differential HDX kinetics, peptide AAFPPLYZELF” value (RORγt LBD; 496-506, charge 2, H12) was −3(3)*. For the same compound, the “HDX kinetics in helix 12 (H12)” value (RORγt LBD; RORγt LBD ± compound) was “No statistically significant change in HDX kinetics” and the “Differential HDX kinetics, peptide TEIEHLVQ” value (RORγt LBD; charge 2, H1, percent deuterium exchange difference) was −2(5)*.
